Test results published in US4117117A, “Tridecapetide having gastrin effect” (Max Planck-Gesellschaft zur Forderung der Wissenschaften, priority 1976, dated 1978).

Key:
[1] = stability compared to natural minigastrin; settings: as compared to the natural minigastrin
[2] = test system: secretion activity of the stomach and of the pancreas; assay: gastrin activity (stimulation of the secretion activity of the stomach and of the pancreas)

In the case of “L-leucyl-L-glutamyl-L-glutamyl-L-glutamyl-L-glutamyl-L-glutamyl-L-ananyl-L-tyrosyl-glycyl-L-tryptophyl-L-leucyl-L-asparagyl-L-phenylalanineamide [11-leucine-minigastrin]”, the stability [1] is reported as “improved stability”, the gastrin activity [2] is reported as “satisfactory” and the “stimulation of the secretion activity of the stomach and of the pancreas” value ([2]; just like naturally-occurring gastrin) is reported as “causes stimulation”.
